Test results published in article doi:10.1101/810010v1 (biorxiv, 2019).

Biological target: Syt1 C2B (Mus musculus, UniProt P46096)
Assay: […]-1H HSQC NMR titration, global fit of chemical shifts, single-site model
Assay type: binding

Chain of Syt1 C2B (P46096 271-421): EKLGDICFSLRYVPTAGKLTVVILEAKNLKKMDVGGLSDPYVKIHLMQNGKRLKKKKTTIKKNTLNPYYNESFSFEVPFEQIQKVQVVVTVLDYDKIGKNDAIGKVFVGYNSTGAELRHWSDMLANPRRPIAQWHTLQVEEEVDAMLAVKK

- Kd: 215 ± 16 µM
Compound: CCCC(=O)OC[C@H](COP(=O)(O)O[C@@H]1[C@H](O)[C@H](O)[C@@H](OP(=O)(O)O)[C@H](OP(=O)(O)O)[C@H]1O)OC(=O)CCC [di-C4-PtdIns(4,5)P2]
